The source made the active and inactive calls. No cut-off for these calls is given here.

Experiment [1] has as its system 3T3-L1. Description: Downregulation of CPT-1 gene expression in mouse 3T3L1 cells at […] after 4 days by RT-PCR analysis. In kind it is functional, cell-based.
Experiment [2] relates to 3T3-L1. Description: Downregulation of ACC-1 gene expression in mouse 3T3L1 cells at […] after 4 days by RT-PCR analysis relative to untreated control. Type of experiment: functional.
The test system of experiment [3] is 3T3-L1. In words: Upregulation of PGC-1 gene expression in mouse 3T3L1 cells at […] after 4 days by RT-PCR analysis relative to control. Type of experiment: functional, cell-based.
Experiment [4] relates to 3T3-L1. Description: Downregulation of ACC-1 gene expression in mouse 3T3L1 cells at […] after 4 days by RT-PCR analysis relative to insulin. Type of experiment: functional.
In experiment [5] the test system is 3T3-L1. In words: Upregulation of CPT-1 gene expression in mouse 3T3L1 cells at […] after 4 days by RT-PCR analysis relative to untreated control. In kind it is functional, cell-based.
For experiment [6], the system named is 3T3-L1. In words: Upregulation of CPT-1 gene expression in mouse 3T3L1 cells at […] after 4 days by RT-PCR analysis relative to insulin. In kind it is functional.

In the case of `CCCCCCCCNC(=S)N/N=C\c1ccc(OCc2cn(Cc3ccccc3)nn2)cc1`, the outcome in the experiment on 3T3-L1 [1] and with 3T3-L1 [3] was Active. Also, the “fold change (FC)” value with 3T3-L1 [2] and with 3T3-L1 [4] was 4 each time.
Regarding `OCCCCCCNC(=S)N/N=C\c1ccc(OCc2cn(Cc3ccccc3)nn2)cc1`, the result in the experiment on 3T3-L1 [2], with 3T3-L1 [3], in the experiment on 3T3-L1 [5] and in the experiment with 3T3-L1 [6] was Active.
`S=C(NCCc1ccccc1)N/N=C\c1ccc(OCc2cn(Cc3ccccc3)nn2)cc1`: the “fold change (FC)” value with 3T3-L1 [2] and in the experiment with 3T3-L1 [4] was 2 each time. Also, the result in the experiment on 3T3-L1 [3], with 3T3-L1 [5] and with 3T3-L1 [6] was Active.
As for `OCCNC(=S)N/N=C\c1ccc(OCc2cn(Cc3ccccc3)nn2)cc1`, in the experiment with 3T3-L1 [1], the result was Active. The result with 3T3-L1 [2] and in the experiment on 3T3-L1 [3] was inactive.
With `CCCCCNC(=S)N/N=C\c1ccc(OCc2cn(Cc3ccccc3)nn2)cc1`, the outcome in the experiment on 3T3-L1 [2], with 3T3-L1 [3] and in the experiment with 3T3-L1 [5] was Active. For the same compound, the “fold change (FC)” value in the experiment on 3T3-L1 [6] was 2.
Turning to `CN(C)CCNC(=S)N/N=C\c1ccc(OCc2cn(Cc3ccccc3)nn2)cc1`, the “fold change (FC)” value came to 2 with 3T3-L1 [2], 2 in the experiment with 3T3-L1 [4] and 3 with 3T3-L1 [6]. Moreover, the outcome in the experiment with 3T3-L1 [3] was inactive. Moreover, the result in the experiment with 3T3-L1 [5] was Active.
Take `CC(C)CNC(=S)N/N=C\c1ccc(OCc2cn(Cc3ccccc3)nn2)cc1`: the “fold change (FC)” value in the experiment on 3T3-L1 [2] is 2; in the experiment with 3T3-L1 [4] it was 2; with 3T3-L1 [6], 5. Besides, the outcome in the experiment on 3T3-L1 [3] and in the experiment with 3T3-L1 [5] was Active.

Source of the values: ChEMBL document CHEMBL2424633, “Evaluation of the Influence of thiosemicarbazone-triazole hybrids on genes implicated in lipid oxidation and accumulation as potential anti-obesity agents” (2013).
